Experimental data: ChEMBL document CHEMBL1128235, “Inhibitors of HIV-1 protease containing the novel and potent (R)-(hydroxyethyl)sulfonamide isostere” (J Med Chem, 1995)

Legend:
[1] = system: CCRF-CEM; experiment: Antiviral activity against HIVIIIB strain of HIV-1 was determined in an CEM based assay; assay type: functional, cell-based; conditions: Homo sapiens
[2] = molecular target: T1, Human immunodeficiency virus type 1 protease (Human immunodeficiency virus 1, UniProt Q72874); experiment: Binding affinity for HIV-1 protease was determined in vitro
[3] = molecular target: T1, Human immunodeficiency virus type 1 protease; experiment: Binding affinity for HIV-1 protease was determined
[4] = molecular target: T1, Human immunodeficiency virus type 1 protease; experiment: Ability to inhibit HIV-1 protease was determined using spectrofluorimetric assay
[5] = molecular target: T1, Human immunodeficiency virus type 1 protease; experiment: Ability to inhibit HIV-1 protease was determined using spectrofluorimetric assay.
[6] = molecular target: T1, Human immunodeficiency virus type 1 protease; experiment: Binding affinity for HIV-1 protease was determined.
[7] = Toxicity in CEM cells infected with HIVIIIB strain of HIV-1; assay type: cell-based; conditions: human, CEM (CCRF-CEM) cells infected with HIV-1 strain IIIB; read-out: TD50 (the source's name)
[8] = system: CCRF-CEM; experiment: Antiviral activity against HIVIIIB strain of HIV-1 was determined in an CEM based assay.; assay type: functional, cell-based; conditions: Homo sapiens
[9] = molecular target: T1, Human immunodeficiency virus type 1 protease; experiment: Binding affinity for HIV-1 protease was determined in vitro.

Structure (SMILES) | Ki [3] [nM] | IC50 [4] [nM] | IC50 [5] [nM] | Ki [6] [nM] | further results
CC(C)CN(C[C@@H](O)[C@H](Cc1ccccc1)NC(=O)OCc1ccccc1)S(=O)(=O)c1ccccc1 | – | – | – | – | EC50 [1]: 113 nM; Ki [2]: 3.2 nM
O=C(N[C@@H](Cc1ccccc1)[C@H](O)CN(Cc1ccccc1)S(=O)(=O)c1ccccc1)OCc1ccccc1 | 125 | 190 | – | – | –
CC(C)CCN(C[C@@H](O)[C@H](Cc1ccccc1)NC(=O)[C@H](CC(N)=O)NC(=O)OCc1ccccc1)S(C)(=O)=O | 57 | 100 | – | – | –
CC(C)CCN(C[C@@H](O)[C@H](Cc1ccccc1)NC(=O)OCc1ccccc1)S(=O)(=O)c1ccccc1Cl | – | – | 380 | 227 | –
CC(C)CCN(C[C@H](O)[C@H](Cc1ccccc1)NC(=O)OCc1ccccc1)S(=O)(=O)c1ccccc1 | – | – | 450 | 295 | –
CC(C)CCN(C[C@@H](O)[C@H](Cc1ccccc1)NC(=O)OCc1ccccc1)S(C)(=O)=O | 1870 | 3200 | – | – | –
CC(C)CCN(C[C@@H](O)[C@H](Cc1ccccc1)NC(=O)[C@H](CC(N)=O)NC(=O)c1ccc2ccccc2n1)S(C)(=O)=O | – | – | – | – | CC50 [7]: 45000 nM; EC50 [1]: 53 nM; Ki [2]: 13 nM
CCCS(=O)(=O)N(CCC(C)C)C[C@@H](O)[C@H](Cc1ccccc1)NC(=O)OCc1ccccc1 | – | – | 210 | 128 | –
CC(C)CCN(C[C@@H](O)[C@H](Cc1ccccc1)NC(=O)OCc1ccccc1)S(=O)(=O)Cc1ccccc1 | – | – | 10000 | – | –
CC(C)CCN(C[C@@H](O)[C@H](Cc1ccccc1)NC(=O)OCc1ccccc1)S(=O)(=O)c1cccc(Cl)c1 | – | – | 92 | 61 | –
CC(C)CCN(C[C@@H](O)[C@H](Cc1ccccc1)NC(=O)OCc1ccccc1)S(=O)(=O)c1ccccc1 | – | – | – | – | EC50 [8]: 55 nM; Ki [9]: 10 nM; CC50 [7]: 26000 nM
CC(C)CCN(C[C@@H](O)[C@H](Cc1ccccc1)NC(=O)OCc1ccccc1)S(=O)(=O)c1ccc(Cl)cc1 | – | – | 10 | 4.1 | –
O=C(N[C@@H](Cc1ccccc1)[C@H](O)CN(CC1CCCCC1)S(=O)(=O)c1ccccc1)OCc1ccccc1 | 6.7 | 14 | – | – | –
CC(C)CCN(C[C@@H](O)[C@H](Cc1ccccc1)NC(=O)[C@H](CC(N)=O)NC(=O)c1ccc2ccccc2n1)S(=O)(=O)c1ccccc1 | – | – | – | – | CC50 [7]: 203000 nM; EC50 [1]: 5 nM
CC(C)CCN(C[C@@H](O)[C@H](Cc1ccccc1)NC(=O)[C@H](CC(N)=O)NC(=O)OCc1ccccn1)S(=O)(=O)c1ccccc1 | 0.5 | 2.2 | – | – | –
